What was measured:
Human δ-opioid (DOP) = target: T1, Human δ-opioid (DOP) (Homo sapiens, UniProt P41143); experiment: Radioligand binding, human δ-opioid (DOP) membranes, FlashPlate, [3H]-Bremazocine; details: compound at 10 μM, [3H]-Bremazocine
T1 construct: purchased Perkin Elmer Biosignal
Procedure, shortened: (§1)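 Cloned human receptor membranes were coated onto FlashPlate wells and incubated with radioligand and compound (added from a 0.5 mM DMSO daughter plate) for 1 hour at room temperature in the dark. Scintillation counting gave percent inhibition, with DMSO defining total and reference ligand defining non-specific binding.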

Human κ-Opioid (KOP) = target: T2, Human κ-Opioid (KOP) (Homo sapiens, UniProt P41145); experiment: Radioligand binding, human κ-opioid (KOP) membranes, filtration, [3H]-Diprenorphine; details: compound at 10 μM, [3H]-Diprenorphine
T2 construct: purchased Perkin Elmer Biosignal
Procedure, shortened: (§2)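 Percent inhibition of radioligand binding measured on recombinant human membranes: NK1 with [125I]-Substance P, KOP with [3H]-Diprenorphine. Incubation 1 h at room temperature, then harvest onto 0.3% PEI-soaked filters, cold Tris-HCl pH 7.4 washes and scintillation counting; non-specific binding from reference ligand wells.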

Human Melanocortin (MC3) = target: T3, Human Melanocortin (MC3) (Homo sapiens, UniProt P41968); experiment: Radioligand binding, human melanocortin MC3 membranes, FlashPlate, [125I]-NDP-αMSH; details: compound at 10 μM, [125I]-NDP-αMSH
T3 construct: purchased Perkin Elmer Biosignal
Procedure, shortened: as §1

Human Melanocortin (MC4) = target: T4, Human Melanocortin (MC4) (Homo sapiens, UniProt P32245); experiment: Radioligand binding, human melanocortin MC4 membranes, FlashPlate, [125I]-NDP-αMSH; details: compound at 10 μM, [125I]-NDP-αMSH
T4 construct: purchased Perkin Elmer Biosignal
Procedure, shortened: as §1

Human melanocortin (MC5) = target: T5, Human melanocortin (MC5) (Homo sapiens, UniProt P33032); experiment: Radioligand binding, human melanocortin MC5 membranes, FlashPlate, [125I]-NDP-αMSH; details: compound at 10 μM, [125I]-NDP-αMSH
T5 construct: purchased Perkin Elmer Biosignal
Procedure, shortened: as §1

[1] = target: T6, Human melanin-concentrating hormone (MCH1) (Homo sapiens, UniProt Q99705); experiment: Radioligand binding, human melanin-concentrating hormone MCH1 membranes, FlashPlate, [125I]-S36057; details: compound at 10 μM
T6 construct: purchased Perkin Elmer Biosignal
Procedure, shortened: as §1

Human μ-opioid (MOP) = target: T7, Human μ-opioid (MOP) (Homo sapiens, UniProt P35372); experiment: Radioligand binding, human μ-opioid (MOP) membranes, FlashPlate, [3H]-Naloxone; details: compound at 10 μM, [3H]-Naloxone
T7 construct: purchased Perkin Elmer Biosignal
Procedure, shortened: as §1

Human neurokinin (NK1) = target: T8, Human neurokinin (NK1) (Homo sapiens, UniProt P25103); experiment: Radioligand binding, human neurokinin NK1 membranes, filtration, [125I]-Substance P; details: compound at 10 μM, [125I]-Substance P
T8 construct: purchased Perkin Elmer Biosignal
Procedure, shortened: as §2

[2] = target: T9, Human neuropeptide Y (NPY-Y1) (Homo sapiens, UniProt P25929); experiment: Radioligand binding, human neuropeptide Y NPY-Y1 membranes, FlashPlate, [125I]-PYY; details: compound at 10 μM, [125I]-PYY
T9 construct: purchased Perkin Elmer Biosignal
T9 sequence (P25929 1-384): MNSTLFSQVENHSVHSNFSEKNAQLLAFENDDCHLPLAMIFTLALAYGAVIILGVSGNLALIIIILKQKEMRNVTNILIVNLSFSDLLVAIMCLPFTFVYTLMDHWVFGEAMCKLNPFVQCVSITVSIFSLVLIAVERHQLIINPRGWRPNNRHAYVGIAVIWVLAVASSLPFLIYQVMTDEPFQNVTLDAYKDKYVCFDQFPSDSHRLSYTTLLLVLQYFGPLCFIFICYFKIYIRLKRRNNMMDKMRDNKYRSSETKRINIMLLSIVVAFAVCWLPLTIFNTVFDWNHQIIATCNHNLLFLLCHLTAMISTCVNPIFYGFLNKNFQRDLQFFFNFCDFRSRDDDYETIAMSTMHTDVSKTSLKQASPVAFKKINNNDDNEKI
Procedure, shortened: as §1

Human opioid (ORL1) = target: T10, Human opioid (ORL1) (Homo sapiens, UniProt P41146); experiment: Radioligand binding, human opioid ORL1 membranes, FlashPlate, [125I]-Nociceptin; details: compound at 10 μM, [125I]-Nociceptin
T10 construct: purchased Perkin Elmer Biosignal
Procedure, shortened: as §1

Mouse urotensin (mUR2) = target: T11, Mouse urotensin (mUR2) (Mus musculus, UniProt Q8VIH9); experiment: Radioligand binding, mouse urotensin mUR2 membranes, FlashPlate, [125I]-Urotensin II; details: compound at 10 μM, [125I]-Urotensin II
T11 construct: purchased Perkin Elmer Biosignal
T11 sequence (Q8VIH9 1-385): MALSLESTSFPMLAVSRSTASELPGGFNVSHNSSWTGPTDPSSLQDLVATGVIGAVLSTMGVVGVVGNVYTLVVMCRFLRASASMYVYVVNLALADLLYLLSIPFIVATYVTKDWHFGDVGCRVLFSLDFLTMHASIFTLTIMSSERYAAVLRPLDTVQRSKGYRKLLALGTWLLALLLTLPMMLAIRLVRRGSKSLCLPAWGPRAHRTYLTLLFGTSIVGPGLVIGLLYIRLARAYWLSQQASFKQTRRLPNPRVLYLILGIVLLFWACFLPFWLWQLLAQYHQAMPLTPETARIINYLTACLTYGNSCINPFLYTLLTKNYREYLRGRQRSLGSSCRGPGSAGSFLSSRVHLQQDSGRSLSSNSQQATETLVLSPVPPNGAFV
Procedure, shortened: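 Cloned mouse urotensin (mUR2) receptor membranes from Perkin Elmer Biosignal were immobilized in FlashPlate microplates using a proprietary coating. Each well got 19.5 μl buffer, then 0.5 μl of DMSO, reference ligand, or compound. Adding 5 μl of [125I]-Urotensin II, diluted to 5× final concentration in binding buffer, started binding. Plates were sealed with TopSeal-A and incubated 1 hour at room temperature in the dark. Wells were counted for 30 seconds each on a TopCount after a 60-second delay, and percentage inhibition was calculated.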

T1 sequence (P41143 whole entry): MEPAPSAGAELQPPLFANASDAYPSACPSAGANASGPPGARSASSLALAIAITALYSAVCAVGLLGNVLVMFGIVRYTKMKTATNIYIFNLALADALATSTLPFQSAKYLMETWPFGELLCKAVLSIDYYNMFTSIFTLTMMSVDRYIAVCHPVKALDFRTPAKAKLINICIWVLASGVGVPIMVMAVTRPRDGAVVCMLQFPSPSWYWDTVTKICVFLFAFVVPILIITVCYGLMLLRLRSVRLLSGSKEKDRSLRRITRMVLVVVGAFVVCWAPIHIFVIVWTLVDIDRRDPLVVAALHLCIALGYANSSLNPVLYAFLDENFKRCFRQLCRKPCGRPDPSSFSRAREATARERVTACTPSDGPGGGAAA
T8 sequence (P25103 whole entry): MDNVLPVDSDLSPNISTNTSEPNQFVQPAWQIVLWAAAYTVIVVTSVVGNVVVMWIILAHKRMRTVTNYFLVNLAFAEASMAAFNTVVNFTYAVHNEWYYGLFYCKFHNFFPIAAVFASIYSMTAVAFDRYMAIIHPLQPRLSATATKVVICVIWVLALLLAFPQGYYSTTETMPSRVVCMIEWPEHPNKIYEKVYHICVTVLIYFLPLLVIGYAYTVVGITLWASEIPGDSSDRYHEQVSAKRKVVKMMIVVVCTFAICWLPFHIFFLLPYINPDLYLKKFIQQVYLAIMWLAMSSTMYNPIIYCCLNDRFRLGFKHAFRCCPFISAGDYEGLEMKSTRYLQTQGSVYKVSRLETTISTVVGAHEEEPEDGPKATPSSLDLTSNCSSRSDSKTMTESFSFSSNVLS
T5 sequence (P33032 whole entry): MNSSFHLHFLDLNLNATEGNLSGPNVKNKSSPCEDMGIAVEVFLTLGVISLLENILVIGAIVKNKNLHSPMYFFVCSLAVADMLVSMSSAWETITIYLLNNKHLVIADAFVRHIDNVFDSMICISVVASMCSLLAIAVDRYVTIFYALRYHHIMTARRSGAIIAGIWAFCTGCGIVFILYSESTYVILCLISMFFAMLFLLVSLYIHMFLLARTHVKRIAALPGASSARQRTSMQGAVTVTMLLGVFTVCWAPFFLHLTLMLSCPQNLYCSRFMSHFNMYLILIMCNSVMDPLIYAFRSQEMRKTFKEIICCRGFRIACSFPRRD
T10 sequence (P41146 whole entry): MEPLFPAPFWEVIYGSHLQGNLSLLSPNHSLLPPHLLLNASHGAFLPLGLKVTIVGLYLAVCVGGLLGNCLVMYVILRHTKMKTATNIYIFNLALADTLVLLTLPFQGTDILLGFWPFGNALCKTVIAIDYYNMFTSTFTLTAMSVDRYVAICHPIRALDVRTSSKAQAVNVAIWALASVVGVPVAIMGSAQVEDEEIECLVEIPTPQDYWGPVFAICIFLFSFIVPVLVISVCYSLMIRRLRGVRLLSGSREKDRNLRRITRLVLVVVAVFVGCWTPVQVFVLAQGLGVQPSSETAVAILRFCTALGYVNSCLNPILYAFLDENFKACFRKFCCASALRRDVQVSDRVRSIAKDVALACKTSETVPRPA
T3 sequence (P41968 whole entry): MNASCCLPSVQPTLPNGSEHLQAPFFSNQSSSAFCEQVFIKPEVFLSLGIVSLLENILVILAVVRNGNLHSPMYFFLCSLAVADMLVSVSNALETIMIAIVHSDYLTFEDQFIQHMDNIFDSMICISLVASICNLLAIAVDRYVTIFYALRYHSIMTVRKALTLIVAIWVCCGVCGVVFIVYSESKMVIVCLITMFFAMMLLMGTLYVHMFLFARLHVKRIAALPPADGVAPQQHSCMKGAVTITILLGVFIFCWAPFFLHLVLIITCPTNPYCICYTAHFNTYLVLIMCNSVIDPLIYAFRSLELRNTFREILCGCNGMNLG
T6 sequence (Q99705 whole entry): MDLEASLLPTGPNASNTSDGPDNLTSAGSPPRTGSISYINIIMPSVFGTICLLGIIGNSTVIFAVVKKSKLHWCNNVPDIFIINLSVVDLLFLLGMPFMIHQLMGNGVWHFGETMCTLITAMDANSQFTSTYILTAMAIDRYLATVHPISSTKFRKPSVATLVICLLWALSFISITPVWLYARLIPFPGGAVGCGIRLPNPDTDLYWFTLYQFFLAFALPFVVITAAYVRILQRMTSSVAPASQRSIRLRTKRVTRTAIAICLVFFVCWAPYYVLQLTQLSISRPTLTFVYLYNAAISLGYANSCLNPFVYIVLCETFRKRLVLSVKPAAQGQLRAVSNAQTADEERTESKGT
T4 sequence (P32245 whole entry): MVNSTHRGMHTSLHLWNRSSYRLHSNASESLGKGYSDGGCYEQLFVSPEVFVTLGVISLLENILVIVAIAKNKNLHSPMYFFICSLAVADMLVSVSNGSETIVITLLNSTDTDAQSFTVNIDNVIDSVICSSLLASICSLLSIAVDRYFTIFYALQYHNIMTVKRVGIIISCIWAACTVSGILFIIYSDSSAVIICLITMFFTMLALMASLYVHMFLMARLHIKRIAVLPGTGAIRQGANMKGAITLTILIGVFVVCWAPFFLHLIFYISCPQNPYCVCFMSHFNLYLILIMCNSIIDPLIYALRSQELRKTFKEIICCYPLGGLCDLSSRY
T2 sequence (P41145 whole entry): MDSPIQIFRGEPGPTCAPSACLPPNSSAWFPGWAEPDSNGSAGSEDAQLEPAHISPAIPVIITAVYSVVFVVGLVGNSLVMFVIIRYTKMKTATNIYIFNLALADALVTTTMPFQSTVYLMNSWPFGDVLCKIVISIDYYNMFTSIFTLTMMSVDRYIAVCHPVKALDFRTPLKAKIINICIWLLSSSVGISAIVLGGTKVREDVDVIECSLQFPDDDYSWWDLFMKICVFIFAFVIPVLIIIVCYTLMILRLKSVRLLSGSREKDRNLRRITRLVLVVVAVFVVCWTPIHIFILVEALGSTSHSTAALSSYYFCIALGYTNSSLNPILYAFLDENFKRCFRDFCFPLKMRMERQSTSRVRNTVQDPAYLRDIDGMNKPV
T7 sequence (P35372 whole entry): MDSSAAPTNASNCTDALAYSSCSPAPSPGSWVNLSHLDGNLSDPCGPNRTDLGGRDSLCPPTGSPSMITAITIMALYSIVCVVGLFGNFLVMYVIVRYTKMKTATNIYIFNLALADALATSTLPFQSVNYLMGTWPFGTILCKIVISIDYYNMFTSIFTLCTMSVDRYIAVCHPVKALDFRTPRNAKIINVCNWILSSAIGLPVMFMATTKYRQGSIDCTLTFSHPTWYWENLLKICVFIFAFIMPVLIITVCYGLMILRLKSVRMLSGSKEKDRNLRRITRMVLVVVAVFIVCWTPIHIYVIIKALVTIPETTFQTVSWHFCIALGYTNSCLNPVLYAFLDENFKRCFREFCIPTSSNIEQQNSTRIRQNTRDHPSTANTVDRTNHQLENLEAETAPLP

SMILES	A1: inhibition of radioligand binding, human δ-opioid (DOP) (Human δ-opioid (DOP))	A2: inhibition of radioligand binding, human κ-opioid (KOP) (Human κ-Opioid (KOP))	A3: inhibition of radioligand binding, human melanocortin (MC3) (Human Melanocortin (MC3))	A4: inhibition of radioligand binding, human melanocortin (MC4) (Human Melanocortin (MC4))	A5: inhibition of radioligand binding, human melanocortin (MC5) (Human melanocortin (MC5))	A6: inhibition of radioligand binding, human melanin-concentrating hormone (MCH1) ([1]; [125I]-S36057)	A7: inhibition of radioligand binding, human μ-opioid (MOP) (Human μ-opioid (MOP))	A8: inhibition of radioligand binding, human neurokinin (NK1) (Human neurokinin (NK1))	A9: inhibition of radioligand binding, human neuropeptide Y (NPY-Y1) [2]	A10: inhibition of radioligand binding, human opioid (ORL1) (Human opioid (ORL1))	A11: inhibition of radioligand binding, mouse urotensin (mUR2) (Mouse urotensin (mUR2))	also measured
CO[C@H]1[C@H](O)[C@@H](COCc2ccc(Cl)cc2)OC(OCc2ccc(Cl)cc2)[C@@H]1NC(=O)CCCN (stereo partly drawn) [compound 107]												A1 radioligand binding, percentage inhibition (Human δ-opioid (DOP)): − (“−” indicates less than 50% inhibition at 10 μM); A2 radioligand binding, percentage inhibition (Human κ-Opioid (KOP)): − (“−” indicates less than 50% inhibition at 10 μM); A3 radioligand binding, percentage inhibition (Human Melanocortin (MC3)): − (“−” indicates less than 50% inhibition at 10 μM); A4 radioligand binding, percentage inhibition (Human Melanocortin (MC4)): + (“+” indicates greater than 50% inhibition at 10 μM); A5 radioligand binding, percentage inhibition (Human melanocortin (MC5)): + (“+” indicates greater than 50% inhibition at 10 μM); A6 radioligand binding, percentage inhibition ([1]; [125I]-S36057): − (“−” indicates less than 50% inhibition at 10 μM); A7 radioligand binding, percentage inhibition (Human μ-opioid (MOP)): − (“−” indicates less than 50% inhibition at 10 μM); A8 radioligand binding, percentage inhibition (Human neurokinin (NK1)): + (“+” indicates greater than 50% inhibition at 10 μM); A9 radioligand binding, percentage inhibition [2]: − (“−” indicates less than 50% inhibition at 10 μM); A10 radioligand binding, percentage inhibition (Human opioid (ORL1)): − (“−” indicates less than 50% inhibition at 10 μM); A11 radioligand binding, percentage inhibition (Mouse urotensin (mUR2)): − (“−” indicates less than 50% inhibition at 10 μM)
N=C(N)NCCC(=O)N[C@H]1C(OCc2ccc(Cl)cc2)O[C@H](COCc2ccc(Cl)cc2)[C@@H](O)[C@@H]1OCc1ccc2ccccc2c1 (stereo partly drawn) [compound 532]	− (“−” indicates less than 50% inhibition at 10 μM)	+ (“+” indicates greater than 50% inhibition at 10 μM)	+ (“+” indicates greater than 50% inhibition at 10 μM)	+ (“+” indicates greater than 50% inhibition at 10 μM)	+ (“+” indicates greater than 50% inhibition at 10 μM)	+ (“+” indicates greater than 50% inhibition at 10 μM)	+ (“+” indicates greater than 50% inhibition at 10 μM)	+ (“+” indicates greater than 50% inhibition at 10 μM)	− (“−” indicates less than 50% inhibition at 10 μM)	+ (“+” indicates greater than 50% inhibition at 10 μM)	− (“−” indicates less than 50% inhibition at 10 μM)	
COC1C(O)C(COCc2ccc3ccccc3c2)OC(OCc2ccc(Cl)cc2)C1NC(=O)C1CCCN1 (stereo not drawn) [compound 347]	− (“−” indicates less than 50% inhibition at 10 μM)	− (“−” indicates less than 50% inhibition at 10 μM)	− (“−” indicates less than 50% inhibition at 10 μM)	− (“−” indicates less than 50% inhibition at 10 μM)	− (“−” indicates less than 50% inhibition at 10 μM)	− (“−” indicates less than 50% inhibition at 10 μM)	− (“−” indicates less than 50% inhibition at 10 μM)	+ (“+” indicates greater than 50% inhibition at 10 μM)	− (“−” indicates less than 50% inhibition at 10 μM)	− (“−” indicates less than 50% inhibition at 10 μM)	− (“−” indicates less than 50% inhibition at 10 μM)	
CSC1O[C@H](COCc2ccc3ccccc3c2)[C@@H](O)[C@@H](OCc2ccc(-c3ccccc3)cc2)[C@H]1NC(=O)CNC(=N)N (stereo partly drawn) [compound 296]	− (“−” indicates less than 50% inhibition at 10 μM)	− (“−” indicates less than 50% inhibition at 10 μM)	− (“−” indicates less than 50% inhibition at 10 μM)	− (“−” indicates less than 50% inhibition at 10 μM)	− (“−” indicates less than 50% inhibition at 10 μM)	− (“−” indicates less than 50% inhibition at 10 μM)	− (“−” indicates less than 50% inhibition at 10 μM)	+ (“+” indicates greater than 50% inhibition at 10 μM)	− (“−” indicates less than 50% inhibition at 10 μM)	− (“−” indicates less than 50% inhibition at 10 μM)	− (“−” indicates less than 50% inhibition at 10 μM)	
CSC1O[C@H](COCc2ccc(-c3ccccc3)cc2)[C@@H](O)[C@@H](OCc2ccc(Cl)cc2)[C@H]1NC(=O)CCCN (stereo partly drawn) [compound 278]												A1: inhibition of radioligand binding (Human δ-opioid (DOP); FlashPlate): − (“−” indicates less than 50% inhibition at 10 μM); A2: inhibition of radioligand binding (Human κ-Opioid (KOP); filtration): − (“−” indicates less than 50% inhibition at 10 μM); A3: inhibition of radioligand binding (Human Melanocortin (MC3); FlashPlate): − (“−” indicates less than 50% inhibition at 10 μM); A4: inhibition of radioligand binding (Human Melanocortin (MC4); FlashPlate): − (“−” indicates less than 50% inhibition at 10 μM); A5: inhibition of radioligand binding (Human melanocortin (MC5); FlashPlate): − (“−” indicates less than 50% inhibition at 10 μM); A6: inhibition of radioligand binding ([1]; [125I]-S36057, FlashPlate): − (“−” indicates less than 50% inhibition at 10 μM); A7: inhibition of radioligand binding (Human μ-opioid (MOP); FlashPlate): − (“−” indicates less than 50% inhibition at 10 μM); A8: inhibition of radioligand binding (Human neurokinin (NK1); filtration): + (“+” indicates greater than 50% inhibition at 10 μM); A9: inhibition of radioligand binding ([2]; FlashPlate): − (“−” indicates less than 50% inhibition at 10 μM); A10: inhibition of radioligand binding (Human opioid (ORL1); FlashPlate): − (“−” indicates less than 50% inhibition at 10 μM); A11: inhibition of radioligand binding (Mouse urotensin (mUR2); FlashPlate): − (“−” indicates less than 50% inhibition at 10 μM)
NCCCC(=O)NC1C(OCc2ccccc2)OC(COCc2ccc(Cl)cc2)C(O)C1OCc1ccc(Cl)cc1 (stereo not drawn) [compound 374]	− (“−” indicates less than 50% inhibition at 10 μM)	− (“−” indicates less than 50% inhibition at 10 μM)	− (“−” indicates less than 50% inhibition at 10 μM)	+ (“+” indicates greater than 50% inhibition at 10 μM)	+ (“+” indicates greater than 50% inhibition at 10 μM)	− (“−” indicates less than 50% inhibition at 10 μM)	− (“−” indicates less than 50% inhibition at 10 μM)	+ (“+” indicates greater than 50% inhibition at 10 μM)	− (“−” indicates less than 50% inhibition at 10 μM)	− (“−” indicates less than 50% inhibition at 10 μM)	− (“−” indicates less than 50% inhibition at 10 μM)	

From patent publication US20080009418A1, “Selective Inhibitors” (Alchemia LTD., priority 2004, published 2008)
